Patent US20060052283A1, “The Sperm Binding Ligand HIPRTY and Its Involvement in Embryo Cleavage” (priority 2004, published 2006)

System: mouse sperm
Experiment: Phage combinatorial peptide library screening of intact live sperm
Conditions: live CB6F1 mouse sperm, 4 rounds of binding, amplification and selection, Ph.D-7 and Ph.D-12 libraries
Method: A mouse sperm suspension was isolated from cauda epididymides of fertile male CB6F1 mice. Briefly, the epididymides and vas deferens were dissected in a 35 mm dish containing 5 ml of CZB (pre-equilibrated at 37° C. and 5% CO2) and gently compressed to release sperm. Following a 10 minute incubation period, the epididimydes were removed and the sperm suspension incubated for a further 30 minute period. A 500 ul aliquot of the sperm suspension was removed from the top layer of media and placed in a 1.5 ml centrifuge tube. A 3 ul volume of phage combinatorial peptide library was added to this tube and the suspension incubated for 1 hour at 37 degrees. Following incubation, the sperm suspension was washed as follows. The suspension was centrifuged in a tabletop microcentrifuge at maximum speed for 1 minute and the majority of the supernatant removed. The remaining volume was re-suspended in 1 ml of media via pipetting and separated into two 500 ul aliquots in two 15 ml centrifuge tubes. A further 14 ml of CZB wash media was added to these tubes followed by 15 min incubation at room temperature. The tubes were centrifuged at 1000 g for 5 minutes and the supernatant removed down to an approximate 50 ul volume. […]
Phage DNA was isolated by several different methods. […] DNA quality and quantity was determined via agarose gel electrophoresis on vertical mini-gels with novel illumination and filters. […]

**Q.** HIPRTY was tested. Which “binding sequence selected from combinatorial libraries” value did it give?
**A.** The value was “binding sequence of mouse sperm”.
